Measurements taken from patent US20100280047A1, “SALTS OF ACTIVE INGREDIENTS WITH POLYMERIC COUNTER-IONS” (BASF SE, priority 2007, published 2010).

Experiments:
[1] = Saturation solubility of haloperidol in aqueous polymer solutions (HPLC of filtrate); assay type: physicochemical
Protocol: 1.0 g of haloperidol (free base) was added to 100.0 ml of aqueous polymer solution and stirred for 72 h. […] The undissolved amount of haloperidol was filtered off. The content of haloperidol in the filtrate was determined by HPLC.
For comparison, the saturation solubility of haloperidol was determined in demineralized water, as well as in hydrochloric acid. In the latter case, the corresponding haloperidol hydrochloride is formed.

[2] = Saturation solubility of loperamide in aqueous polymer solutions (HPLC of filtrate); assay type: physicochemical
Protocol: 1.0 g of loperamide (free base) was added to 100.0 ml of aqueous polymer solution and stirred for 72 h. […] The undissolved amount of loperamide was filtered off. The content of loperamide in the filtrate was determined by HPLC.
For comparison, the saturation solubility of loperamide was determined in demineralized water, as well as in hydrochloric acid. In the case of the latter, the corresponding loperamide hydrochloride is formed.

Concentration of dissolved haloperidol ([1]; 10% by wt. polymer D in water, stirred 72 h, pH of filtered solution 3.2) | Concentration of dissolved haloperidol ([1]; 20% by wt. polymer A in water, stirred 72 h, pH of filtered solution 3.0) | Concentration of dissolved haloperidol ([1]; 20% by wt. polymer C in water, stirred 72 h, pH of filtered solution 3.3) | Concentration of dissolved haloperidol ([1]; 20% by wt. polymer D in water, stirred 72 h, pH of filtered solution 3.0) | Concentration of dissolved haloperidol ([1]; 20% solution of polymer A plus NaOH to pH 10, pH of filtered solution 10.1) | Concentration of dissolved haloperidol ([1]; demineralized water, 0% polymer, stirred 72 h, pH of filtered solution 7.5) | Concentration of dissolved haloperidol ([1]; hydrochloric acid 10%, no polymer (haloperidol hydrochloride is formed)) | SMILES | Concentration of dissolved loperamide ([2]; 10% by wt. polymer A in water, stirred 72 h, pH of filtered solution 2.5) | Concentration of dissolved loperamide ([2]; 10% by wt. polymer B in water, stirred 72 h, pH of filtered solution 2.0) | Concentration of dissolved loperamide ([2]; 20% by wt. polymer A in water, stirred 72 h) | Concentration of dissolved loperamide ([2]; 20% by wt. polymer D in water, stirred 72 h, pH of filtered solution 1.9) | Concentration of dissolved loperamide ([2]; demineralized water, 0% polymer, stirred 72 h) | Concentration of dissolved loperamide ([2]; hydrochloric acid 10%, no polymer (loperamide hydrochloride is formed))
5200 µg/mL | 10300 µg/mL | 7700 µg/mL | 15100 µg/mL | <74 µg/mL | <17.8 µg/mL | <16 µg/mL | O=C(CCCN1CCC(O)(c2ccc(Cl)cc2)CC1)c1ccc(F)cc1 [haloperidol] | – | – | – | – | – | –
– | – | – | – | – | – | – | CN(C)C(=O)C(CCN1CCC(O)(c2ccc(Cl)cc2)CC1)(c1ccccc1)c1ccccc1 [loperamide] | 6200 µg/mL | 3900 µg/mL | 7600 µg/mL | 5900 µg/mL | <17 µg/mL | <14.9 µg/mL
